Assay results published in patent US11026944B2, “Compositions and methods for treating insomnia” (Eisai R&D Management Co., Ltd., priority 2014, dated 2021).
Read-outs that look alike come from different tables or passages of the source.

Assay: Crossover study of relative bioavailability of tablet versus capsule (005 Study): plasma PK
Type: in vivo, human
Conditions: for Tmax / concentration at 8 h / AUC(0-t) / AUC(0-inf) / Cmax / half-life: human, plasma; for concentration at 8 h: plasma at 8 h, read-out: C8 Mean(SD); for AUC(0-inf): read-out: AUC(0-inf) Mean(SD); for Cmax: read-out: Cmax Mean(SD); for half-life: read-out: t1/2 Mean(SD) (converted)
Protocol: Single-center, open-label, randomized crossover study was conducted to evaluate, in healthy adult subjects, the bioavailability of single solid oral doses of compound A in tablet formulation relative to single oral doses of compound A in capsule formulation at 2.5, 10, and 25 mg. Another objective of the study was to evaluate the safety and tolerability of tablet formulations of compound A at 2.5, 10, and 25 mg in healthy adult subjects. Approximately 36 subjects were randomly assigned to one of three cohorts (approximately 12 subjects per cohort) and received both a single dose of compound A as a capsule formulation and a single dose of compound A as a tablet formulation, in random sequence, in a 1:1 ratio. The doses were 2.5 mg, 10 mg, and 25 mg.
The study had two phases: Prerandomization and Randomization. The Prerandomization Phase lasted for up to 21 days and included a Screening Period and Baseline Period A, during which eligibility was established and baseline assessments before dosing of the first formulation occurred. The Randomization Phase consisted of two Treatment Periods (A and B), separated by Baseline Period B. On the first day of Treatment Period A, subjects received a single oral dose of the first formulation. After the first formulation dose, pharmacokinetic (PK) and safety assessments were obtained throughout Treatment Period A, and subjects completed a 20-day washout. Before dosing of the second formulation, subjects completed Baseline Period B assessments. Subjects then proceeded to Treatment Period B and received a single oral dose of the second formulation. Pharmacokinetic and safety assessments were obtained throughout Treatment Period B.
Blood samples for the determination of plasma concentrations of compound A were collected at the following times: Treatment Period A (Day 1 to Day 15): before and after dosing at 0.5 (30 minutes), 1, 1.5, 2, 3, 4, 5, 6, 8, 12, 24, 48, 72, 120, 168, 240, and 336 hours; Treatment Period B (Day 22 to Day 36): before and after dosing at 0.5 (30 minutes), 1, 1.5, 2, 3, 4, 5, 6, 8, 12, 24, 48, 72, 120, 168, 240, and 336 hours.
Plasma concentrations of compound A were measured using a validated liquid chromatography-tandem mass spectrometry (LC-MS/MS) assay.
Noncompartmental methods were used to calculate the following plasma PK parameters for compound A: area under the plasma concentration-time curve from time zero to 8 hours after dosing (AUC(0-8)), area under the plasma concentration-time curve from time zero to 72 hours after dosing (AUC(0-72)), area under the plasma concentration-time curve from time zero to time of the last quantifiable concentration (AUC(0-t)), area under the plasma concentration-time curve from time zero extrapolated to time infinity (AUC(0-inf)), maximum observed plasma drug concentration (Cmax), terminal elimination half-life (t1/2), absorption lag time (tlag), and time to reach the maximum (peak) plasma concentration after drug administration (tmax). The primary PK parameters were AUC(0-inf) and Cmax. The individual PK parameters of compound A were presented in the data listings by formulation (tablet or capsule) and dose (2.5, 10, or 25 mg). The PK parameters except tmax and tlag were summarized by formulation and dose using descriptive statistics: number of subjects, mean, SD, coefficient of variation, geometric mean, median, minimum, and maximum. The parameters tmax and tlag were summarized by formulation and dose using the following descriptive statistics: median, minimum, maximum, and the 90% confidence interval (CI) of the median point estimate. The natural log (In)-transformed PK parameters for compound A (AUC(0-inf), Cmax, AUC(0-8), AUC(0-72), and AUC(0-t)) were compared separately by dose with a mixed-effects model with sequence, treatment period, and formulation as fixed effects and subjects nested within sequence as a random effect. […]

[1] = across all dose levels (2.5, 10, 25 mg)
[2] = po, 2.5 mg, single oral 2.5 mg Capsule, healthy adults
[3] = po, 2.5 mg, single oral 2.5 mg Tablet, healthy adults
[4] = po, 10 mg, single oral 10 mg Capsule, healthy adults
[5] = po, 10 mg, single oral 10 mg Tablet, healthy adults
[6] = po, 25 mg, single oral 25 mg Capsule, healthy adults
[7] = po, 25 mg, single oral 25 mg Tablet, healthy adults

Cc1ncc(OC[C@@]2(c3cccc(F)c3)C[C@H]2C(=O)Nc2ccc(F)cn2)c(C)n1 [Compound A, (1R,2 S)-2-(((2,4-dimethylpyrimidin-5-yl)oxy)methyl)-2-(3-fluorophenyl)-N-(5-fluoropyridin-2-yl) cyclopropanecarboxamide]
Differences between formulations (tablet vs capsule) in AUC(0-8), AUC(0-72), AUC(0-t), AUC(0-inf) [1]: less than 13% | Differences between tablet and capsule formulations in Cmax [1]: less than 16% | absorption lag (either formulation, any dose level): no observed absorption lag | Tmax (oral, tablet and capsule, across all dose levels, read-out: median tmax): 1 to 1.5 h | concentration at 8 h (po, 2.5 mg, single oral 2.5 mg Capsule): 0.00184 µg/mL | concentration at 8 h (po, 2.5 mg, single oral 2.5 mg Tablet): 0.00175 µg/mL | AUC(0-t) (po, 2.5 mg, single oral 2.5 mg Capsule, healthy adults, read-out: AUC(0-8) Mean(SD)): 0.0455 µg·h/mL | AUC(0-t) (po, 2.5 mg, single oral 2.5 mg Capsule, healthy adults, read-out: AUC(0-72) Mean(SD)): 0.0851 µg·h/mL | AUC(0-inf) [2]: 0.103 µg·h/mL | AUC(0-t) (po, 2.5 mg, single oral 2.5 mg Capsule, healthy adults, read-out: AUC(0-t) Mean(SD)): 0.0949 µg·h/mL | Cmax [2]: 0.0159 µg/mL | half-life [2]: 36.8 h | Tmax (po, 2.5 mg, single oral 2.5 mg Capsule, healthy adults, read-out: tmax (median)): 1 h | AUC(0-t) (po, 2.5 mg, single oral 2.5 mg Tablet, healthy adults, read-out: AUC(0-8) Mean(SD)): 0.0471 µg·h/mL | AUC(0-t) (po, 2.5 mg, single oral 2.5 mg Tablet, healthy adults, read-out: AUC(0-72) Mean(SD)): 0.0843 µg·h/mL | AUC(0-inf) [3]: 0.101 µg·h/mL | AUC(0-t) (po, 2.5 mg, single oral 2.5 mg Tablet, healthy adults, read-out: AUC(0-t) Mean(SD)): 0.0932 µg·h/mL | Cmax [3]: 0.018 µg/mL | half-life [3]: 35.1 h | Tmax (po, 2.5 mg, single oral 2.5 mg Tablet, healthy adults, read-out: tmax (median)): 1 h | concentration at 8 h (po, 10 mg, single oral 10 mg Capsule): 0.0089 µg/mL | concentration at 8 h (po, 10 mg, single oral 10 mg Tablet): 0.00744 µg/mL | AUC(0-t) (po, 10 mg, single oral 10 mg Capsule, healthy adults, read-out: AUC(0-8) Mean(SD)): 0.164 µg·h/mL | AUC(0-t) (po, 10 mg, single oral 10 mg Capsule, healthy adults, read-out: AUC(0-72) Mean(SD)): 0.372 µg·h/mL | AUC(0-inf) [4]: 0.531 µg·h/mL | AUC(0-t) (po, 10 mg, single oral 10 mg Capsule, healthy adults, read-out: AUC(0-t) Mean(SD)): 0.511 µg·h/mL | Cmax [4]: 0.049 µg/mL | half-life [4]: 57 h | Tmax (po, 10 mg, single oral 10 mg Capsule, healthy adults, read-out: tmax (median)): 1.5 h | AUC(0-t) (po, 10 mg, single oral 10 mg Tablet, healthy adults, read-out: AUC(0-8) Mean(SD)): 0.178 µg·h/mL | AUC(0-t) (po, 10 mg, single oral 10 mg Tablet, healthy adults, read-out: AUC(0-72) Mean(SD)): 0.341 µg·h/mL | AUC(0-inf) [5]: 0.472 µg·h/mL | AUC(0-t) (po, 10 mg, single oral 10 mg Tablet, healthy adults, read-out: AUC(0-t) Mean(SD)): 0.455 µg·h/mL | Cmax [5]: 0.0581 µg/mL | half-life [5]: 59.5 h | Tmax (po, 10 mg, single oral 10 mg Tablet, healthy adults, read-out: tmax (median)): 1 h | concentration at 8 h (po, 25 mg, single oral 25 mg Capsule): 0.0199 µg/mL | concentration at 8 h (po, 25 mg, single oral 25 mg Tablet): 0.0176 µg/mL | AUC(0-t) (po, 25 mg, single oral 25 mg Capsule, healthy adults, read-out: AUC(0-8) Mean(SD)): 0.358 µg·h/mL | AUC(0-t) (po, 25 mg, single oral 25 mg Capsule, healthy adults, read-out: AUC(0-72) Mean(SD)): 0.803 µg·h/mL | AUC(0-inf) [6]: 1.11 µg·h/mL | AUC(0-t) (po, 25 mg, single oral 25 mg Capsule, healthy adults, read-out: AUC(0-t) Mean(SD)): 1.08 µg·h/mL | Cmax [6]: 0.105 µg/mL | half-life [6]: 57.4 h | Tmax (po, 25 mg, single oral 25 mg Capsule, healthy adults, read-out: tmax (median)): 1.5 h | AUC(0-t) (po, 25 mg, single oral 25 mg Tablet, healthy adults, read-out: AUC(0-8) Mean(SD)): 0.386 µg·h/mL | AUC(0-t) (po, 25 mg, single oral 25 mg Tablet, healthy adults, read-out: AUC(0-72) Mean(SD)): 0.795 µg·h/mL | AUC(0-inf) [7]: 1.1 µg·h/mL | AUC(0-t) (po, 25 mg, single oral 25 mg Tablet, healthy adults, read-out: AUC(0-t) Mean(SD)): 1.07 µg·h/mL | Cmax [7]: 0.12 µg/mL | half-life [7]: 57.6 h | Tmax (po, 25 mg, single oral 25 mg Tablet, healthy adults, read-out: tmax (median)): 1 h
